“Also recorded” adds a separate entry of the source.
Tests used:
c-myb [1] = assay: qPCR of sorted c-myb:GFP zebrafish embryo cells; type: cell-based; settings: sorted c-myb:GFP cells from 72 hpf embryos, 1 μM, 6 hours
Method: RA dose response experiments were plated similarly in LDF medium with the appropriate RA concentration. Sorted c-myb:GFP+ cells were collected from 72 hpf transgenic embryos that were homogenized: embryos were finely chopped and dissociated using Liberase (Roche), cell suspensions were filtered, and 58,000 GFP+ live cells were collected using a FACS Aria cell sorter (BD Biosciences). Cells were cultured for 6 hours in LDF medium, and then collected for qPCR.
(§1) Quantitative PCR: Total RNA from cells was extracted using Qiagen RNeasy Mini Kit, and random primed cDNA was generated (Invitrogen, SuperScript III First-Strand Synthesis System). The SsoFast EvaGreen (Biorad) method was used to quantify cDNAs of interest, which are represented as the fold change in transcript level. The amount of cDNA starting material for each sample was normalized in relation to species-specific β-actin expression for zebrafish samples, and both gapdh and β-actin expression for human samples. The primer sequences used were zebrafish myb: forward, 5′-[…]-3′ (SEQ ID No:1), reverse, 5′-[…]-3′ (SEQ ID No:2); zebrafish β-actin: forward, 5′-[…]-3′ (SEQ ID No:3), reverse, 5′-[…]-3′ (SEQ ID No:4); human myb: forward, 5′-[…]-3′ (SEQ ID No:5), reverse, 5′-[…]-3′ (SEQ ID No:6); human gapdh: forward, 5′-[…]-3′ (SEQ ID No:7), reverse, 5′-[…]-3′ (SEQ ID No:8); human β-actin: forward, 5′-[…]-3′ (SEQ ID No:9), reverse, 5′-[…]-3′ (SEQ ID No:10).
Zebrafish quantitative PCR analysis: Stage-matched 72 hpf c-myb:GFP transgenic embryos were finely chopped and dissociated using Liberase (Roche). GFP+ cells were collected using a FACS Aria cell sorter (BD Biosciences). Sorted cells were resuspended in zebrafish blastomere media and plated with 1 μM retinoic acid agonists for 6 hours. Cells were then collected and RNA was isolated using the RNeasy Micro Plus Kit (Qiagen) as per the manufacturer's instructions. cDNA was synthesized using the SuperScript III Kit (Life Technologies). Quantitative PCR was performed in triplicate on a BioRad iQ5 real-time PCR machine using Ssofast EvaGreen Supermix (BioRad). Samples were normalized to β-actin gene. Zebrafish primers used (forward and reverse respectively): actin, 5′-[…]-3′ (SEQ ID No:3) and 5′-[…] -3′ (SEQ ID No:4); c-myb, 5′-[…]-3′ (SEQ ID No:1) and 5′-[…]-3′ (SEQ ID No:2); mpx, 5′-[…]-3′ (SEQ ID No:11) and 5′-[…]-3′ (SEQ ID No:12); GFP, 5′-[…]-3′ (SEQ ID No:13) and 5′-[…]-3′ (SEQ ID No:14).

c-myb [2] = assay: U937 time course qPCR of c-myb; type: cell-based, human; settings: for myb levels in U937 by qPCR: 1 μM, 6, 24 and 48 hours
Method: Cell culture: U937 cells were grown in RPMI 1640 (Life Technologies), 10% heat inactivated FBS, and 1% Penicillin-Streptomycin (Invitrogen). CellTiter-Glo Luminescent Cell Viability Assay (Promega) was performed as per manufacturer's instructions. Cell viability was assessed at day 2.
as §1
U937 time course quantitative PCR analysis: U937 cells were plated with 1 μM retinoic acid agonists for the duration indicated. Cells were then collected and RNA was isolated using the RNeasy Plus Mini Kit (Qiagen) as per the manufacturer's instructions. Further processing was done as described in the section above. Samples were normalized to β-actin gene. Human primers used (forward and reverse respectively): actin, 5′-[…]-3′ (SEQ ID No:9) and 5′-[…]-3′ (SEQ ID No:10); c-myb, 5′-[…]-3′ (SEQ ID No:5) and 5′-[…]-3′ (SEQ ID No:6).

ACCx6 = assay: ACC xenotransplantation trial, ACCx6; type: in vivo, nude mice; settings: oral 0.2 mL flat dose: ATRA 4 mg/mL, isotretinoin 30 mg/mL, fenretinide 40 mg/mL
Method: (§2) Xenograft experiments: To generate ACC xenografts, 1×10^6 viable ACC cells were injected into the flank of female nude (Foxn1nu) mice for in vivo drug testing of ACCx6, ACCx9, and ACCx11 lines. Once tumors were visible, the mice were randomized to receive vehicle control or drug until reaching a […] tumor volume of 1,000 mm3. The mice in each group were treated with an oral flat dose five times weekly (po qdx5) for four cycles (two days off between cycles). The exact dosing was determined based on an initial MTD tolerability study and published literature reports. Five mice per group were treated for ACCx6 and ACCx9, and four mice per group were treated for ACCx11 (five mice in the control ACCx11 group), and the tumor volumes were quantified. Mice were treated with a flat dose of 0.2 mL orally of: 30 mg/mL isotretinoin; 40 mg/mL fenretinide; 4 mg/mL ATRA for ACCx6 and ACCx11 or 3 mg/mL ATRA for ACCx9. Mouse procedures used in this study were approved by the IACUC at South Texas Accelerated Research Therapeutics (San Antonio, Tex.).
(§3) Primagraft experiments: For in vivo drug testing, ACC tumor fragments from host animals were implanted subcutaneously into the flank of nude mice (CRL: ATH/NU). Once tumors reached 125-250 mm3, mice were randomized to receive vehicle or drug diluted in 10:90 DMSO:10% hydroxypropyl-beta-cyclodextrin orally until controls reached a tumor volume endpoint of 1-2 cm3 (4-9 mice per group: x5M1 and x6, 4 treated vs. 9 vehicle controls; x9, 4 treated vs. 5 vehicle controls; x11, 5 treated vs. 8 vehicle controls). Mice were treated with ATRA (ACC x6 and x11: 4 mg/mL, 0.2 mL flat dose; ACC×9: 3 mg/mL, 0.2 mL flat dose) or isotretinoin (30 mg/mL, 0.2 mL flat dose). Tumor growth was monitored and mice weighed twice weekly and studies ended when final group reached tumor volume endpoint. No statistical methods were employed to determine the sample size, and no blinding of investigators was performed. […]

ACCx9 = assay: ACC xenotransplantation trial, ACCx9; type: in vivo, nude mice; settings: oral 0.2 mL flat dose: ATRA 3 mg/mL, isotretinoin 30 mg/mL, fenretinide 40 mg/mL
Method: as §2, §3

| Structure (SMILES) | endogenous myb levels by qPCR (c-myb [1]) | myb levels in U937 by qPCR (c-myb [2]) | time to downregulation of c-myb expression (c-myb [2]; U937 cells, 1 μM ATRA) [h] | tumor growth inhibition ACCx6 (ACCx6) [%] | tumor growth inhibition ACCx9 (ACCx9) [%] | myb levels in U937 by qPCR (c-myb [2]; listed as RA p-hydroxyanilide) |
| --- | --- | --- | --- | --- | --- | --- |
| CC(C=CC1=C(C)CCCC1(C)C)=CC=C/C(C)=C/C(=O)O [ATRA, (E)-3,7-dimethyl-9-(2,6,6-trimethyl-1-cyclo-hexen-1-yl)-2,4,6,8-nonatetraenoic acid] | significantly downregulate | significantly downregulate; also recorded: reduction | ≤ 3 | 81 | 78 |  |
| CC1=C(/C=C/C(C)=C/C=C/C(C)=C/C(=O)Nc2ccc(O)cc2)C(C)(C)CCC1 [Fenretinide, retinoic acid p-hydroxyanilide] | significantly downregulate | reduction |  | 60 | 57 | significantly downregulate |
| CC1=C(/C=C/C(C)=C/C=C/C(C)=C\C(=O)O)C(C)(C)CCC1 [Isotretinoin, 13-cis-retinoic acid] | significantly downregulate | significantly downregulate; also recorded: reduction |  | 69 | 95 |  |

— US10668039B2, “Methods for treatment of adenoid cystic carcinoma” (THE CHILDREN'S MEDICAL CENTER CORPORATION, priority 2016, dated 2020)
